We go through twelve compounds from ChEMBL document CHEMBL1126628, “Design, synthesis, and neurochemical evaluation of 5-(3-alkyl-1,2,4- oxadiazol-5-yl)-1,4,5,6-tetrahydropyrimidines as M1 muscarinic receptor agonists” (J Med Chem, 1993).

pEC50, pIC50: −log10 of the molar value.

The target in assay [1] is Muscarinic acetylcholine receptor.
Description: Inhibition of [3H]-(R)-QNB binding to muscarinic receptors of rat brain membranes.
For assay [2], the species on record is Rattus norvegicus.
Description: Ability to stimulate phosphoinositol metabolism was examined in the rat cerebral cortex at 100 uM
For assay [3], the species on record is Rattus norvegicus. Kind of assay: Ability to stimulate phosphoinisitol metabolism was examined in the rat hippocampus represented as % maximal stimulation. Type of assay: functional.
The species named for assay [4] is Rattus norvegicus. Kind of assay: cells. The conditions noted are these: Hippocampus.
Description: Effective concentration of compound that can stimulate phosphoinositol metabolism in rat hippocampus
For assay [5], the species on record is Rattus norvegicus. Kind of assay: cells. The conditions noted are these: Hippocampus. This is another data set of the same source.
Description: Inhibition of the response (stimulation of phosphoinositol metabolism in rat hippocampus) to 10 uM of compound by AF-DX 116
The species named for assay [6] is Rattus norvegicus. Kind of assay: cells. The conditions noted are these: Hippocampus. The source holds these as a separate data set.
Description: Inhibition of the response (stimulation of phosphoinositol metabolism in rat hippocampus) to 10 uM of compound by pirenzepine
For assay [7], the species on record is Rattus norvegicus. Kind of assay: cells. The following applies: Hippocampus. This is another data set of the same source.
Description: Inhibition of the response (stimulation of phosphoinositol metabolism in rat hippocampus) to 10 uM of compound by p-F-hexahydrosiladifenidol
Assay [8] is filed under the species Rattus norvegicus. Kind of assay: Ability to stimulate phosphoinisitol metabolism was examined in the rat hippocampus. Type of assay: functional.

As for `Cc1noc(C2=CCCN(C)C2)n1`, the IC50 – broadly, the concentration at which inhibition is half-maximal – in assay [1] worked out at 690 nM. Moreover, the PI in the assay filed under Rattus norvegicus [2] amounted to 50%.
As to `CCCCCCc1noc(C2CN=CNC2)n1.O=C(O)C(F)(F)F` (configuration not stated), the IC50 in assay [1] worked out at 2300 nM. This compound also displayed a PI in the assay filed under Rattus norvegicus [2] of 4.3%.
`CCCCCc1noc(C2CN=CNC2)n1.O=C(O)C(F)(F)F` (configuration not stated) returned an IC50 in assay [1] of 560 nM. The compound further registered a PI in the assay listed under Rattus norvegicus [2] of 29%.
The like results for `CCCCCCCc1noc(C2CN=CNC2)n1.O=C(O)C(F)(F)F` (configuration not stated) were, in that order, 2300 nM and 34%.
In assay [1], `CCCc1noc(C2CN=CNC2)n1.O=C(O)C(F)(F)F` (configuration not stated) had an IC50 of 550 nM. In the assay filed under Rattus norvegicus [2], this compound showed a PI of 79%.
For `CCCCCCCCc1noc(C2CN=CNC2)n1.O=C(O)C(F)(F)F` (configuration not stated), in that order: 530 nM and 28%.
In the assay listed under Rattus norvegicus [3], `Cc1noc(C2CN=CNC2)n1.O=C(O)C(F)(F)F` (configuration not stated) gave a Max stimulation of 510%. In the assay listed under Rattus norvegicus [2], this compound displayed a PI of 700%. Besides, the pEC50 – broadly, −log10 of the EC50, conventionally taken in molar units – in the assay filed under Rattus norvegicus [4] is 5.28. Further, the pIC50 (as a rule, the IC50 on a negative log10 scale, so that one unit is a factor of ten) in the assay filed under Rattus norvegicus [5] was 5.77; in the assay filed under Rattus norvegicus [6] it was 7.42; in the assay filed under Rattus norvegicus [7], 5.92.
`Cc1noc(C2CN3CCC2CC3)n1` (configuration not stated): the IC50 in assay [1] worked out at 350 nM. For the same compound, in the assay filed under Rattus norvegicus [2], the PI worked out at 100%.
Compound `CCc1noc(C2CN=CNC2)n1.O=C(O)C(F)(F)F` (configuration not stated) gave a PI in the assay filed under Rattus norvegicus [2] of 130%.
With `CCCCc1noc(C2CN=CNC2)n1.O=C(O)C(F)(F)F` (configuration not stated), in assay [1], the concentration for half-maximal inhibition (IC50) came out at 490 nM. Also, the PI in the assay listed under Rattus norvegicus [2] is 61%.
In the assay listed under Rattus norvegicus [8], `CC(=O)OC1CN2CCC1CC2` (configuration not stated) [ACECLIDINE] gave a Max stimulation of 390%. Further, in the assay listed under Rattus norvegicus [2], the PI turned out to be 80%. This compound also had a pIC50 in the assay listed under Rattus norvegicus [7] of 7.64.
For the compound `C[N+](C)(C)CCOC(N)=O.[Cl-]` [CARBACHOL], the PI in the assay listed under Rattus norvegicus [2] was 470%.
